Data as given in ChEMBL document CHEMBL1125655 (J Med Chem, 1991).

Assay: pKa value of the compound
Assay type: physicochemical

Compound: CN1CC[C@]23c4c5ccc(O)c4O[C@H]2[C@@H](O[C@@H]2O[C@H](C(=O)O)[C@@H](O)[C@H](O)[C@H]2O)C=C[C@H]3[C@H]1C5 (stereo in doubt; form 1) [MORPHINE GLUCURONIDE]
- pKa: 3.23
